According to patent US8580806B2, “Salts of 4-methyl N-[3-(4-methyl-imidazol-1-yl)-5-trifluoromethyl-phenyl]-3-(4-pyridin-3-yl-pyrimidin-2-ylamino)-benzamide” (Novartis AG, priority 2005, dated 2013):
Where a name gives a salt, the structure may show the parent alone.

What was measured:
Type in all cases: physicochemical
Bulk corrosivity = settings: 2 day, 80% relative humidity with steel coupon
[1] = Stability of solutions or suspensions (Table 15)
[2] = Intrinsic Dissolution Rate (rotating disk method); settings: Water, 37° C., 200 rpm
Experimental: Intrinsic Dissolution Rate (IDR): Dissolution rate measurements were performed at 37° C. using the rotating disk method (VanKell Instrument). A single rotation speed of 200 rpm was used. For IDR in 0.1 N HCl, an 800 mL volume, and for IDE in water, a 200 mL volume were used. The solution was continuously pumped through a UV measuring cell and recycled to the dissolution vessel.

[3] = Hygroscopicity (moisture uptake v. relative humidity); settings: when first tested
Experimental: Hygroscopicity: Sorption/desorption isotherms were collected using a Surface Measurements Systems dynamic vapor sorption device (DVS-1). The measurements were carried out at 25° C.

[4] = Solid-state behaviour of the hydrochloride salt (equilibration, grinding, compression)
[5] = Solid state stability: heat, humidity, xenon light (Table 15)
[6] = Hygroscopicity by TGA after one day at ambient temperature and 93% relative humidity; settings: ambient temperature, listed as Hydrochloride (form B)
Experimental: The hygroscopicity of the salts of the invention was determined by TGA after one day at ambient temperature and 93% relative humidity.

[7] = Decomposition temperature by TGA; settings: as stated in the description of the embodiments; listed as hydrochloride salt
Experimental: The LOD and decomposition temperature of the salts of the invention were determined by TGA, and the melting point was determined by DSC.

[8] = pH of 1% solution or suspension in water; settings: 1% in water
[9] = 0.1% solutions or suspensions, 1 week at 80° C., Acetonitrile
[10] = 0.1% solutions or suspensions, 1 week at 80° C., Ethanol
[11] = 0.1% solutions or suspensions, 1 week at 80° C., Methanol
[12] = 0.1% solutions or suspensions, 1 week at 80° C., Water (pH measured: 4.74; pH measured for HCl salt: 4.22)
[13] = 0.1% solutions or suspensions, 1 week at 80° C., pH 1 (pH measured: 1.26)
[14] = 0.1% solutions or suspensions, 1 week at 80° C., pH 2 (pH measured: 2.00)
[15] = 0.1% solutions or suspensions, 1 week at 80° C., pH 3 (pH measured: 2.94)
[16] = 0.1% solutions or suspensions, 1 week at 80° C., pH 5 (pH measured: 5.01)
[17] = 0.1% solutions or suspensions, 1 week at 80° C., pH 7 (pH measured: 6.02)
[18] = 0.1% solutions or suspensions, 1 week at 80° C., pH 9 (pH measured: 8.92)
[19] = 0.1% solutions or suspensions, 1 week at 80° C., pH 11 (pH measured: 10.86)
[20] = 0.1% solutions or suspensions, PH 1, 1 week @ 50° C.
[21] = 2% solutions or suspensions, 1 day at room temperature, 0.5% CMC
[22] = 2% solutions or suspensions, 1 day at room temperature, 0.5% HPMC cellulose 4000
[23] = 2% solutions or suspensions, 1 day at room temperature, 0.8% Tween 80
[24] = 5% solutions in DMSO, 1 day at room temperature, 1:100 dilution in pH 6.8 buffer
[25] = Solid state, 1 week 80° C., 75% relative humidity, 30% in mixture 1
[26] = Solid state, 1 week 80° C., 75% relative humidity, 30% in mixture 2
[27] = Solid state, 1 week 80° C., 75% relative humidity, Bulk (HPLC)
[28] = Solid state, 1 week 80° C., tight container, 30% in mixture 1
[29] = Solid state, 1 week 80° C., tight container, 30% in mixture 2
[30] = Solid state, 1 week 80° C., tight container, Bulk (HPLC)
[31] = Xenon light (approximately 200 kLuxh), Bulk (HPLC)

With `Cc1cn(-c2cc(NC(=O)c3ccc(C)c(Nc4nccc(-c5cccnc5)n4)c3)cc(C(F)(F)F)c2)cn1` [Hydrochloride monohydrate (form B), 4-methyl-N-[3-(4-methyl-imidazol-1-yl)-5-trifluoromethyl-phenyl]-3-(4-pyridin-3-yl-pyrimidin-2-ylamino)-benzamide monohydrochloride monohydrate salt] the Bulk corrosivity (Bulk corrosivity) was “No change”, the Appearance [1, 9] was “B↓” and the Assay [1, 9] was 100.33. For the same molecule, the “Assay [% area]: bracketed % area” value [1, 9] was 100.00 % area, the Appearance [1, 10] was “A*” and the Assay [1, 10] was 100.41. For the same molecule, the “Assay [% area]: bracketed % area” value [1, 10] was 100.00 % area, the Appearance [1, 11] was “A*” and the Assay [1, 11] was 99.169. For the same molecule, the “Assay [% area]: bracketed % area” value [1, 11] was 98.72 % area, the Appearance [1, 12] was “A↓” and the Assay [1, 12] was 101.43. For the same molecule, the “Assay [% area]: bracketed % area” value [1, 12] was 100.00 % area, the Appearance [1, 13] was “A*” and the Assay [1, 13] was 46.68. The “Assay [% area]: bracketed % area” value [1, 13] was 42.93 % area, the Appearance [1, 14] was “B↓” and the Assay [1, 14] was 91.77. For the same molecule, the “Assay [% area]: bracketed % area” value [1, 14] was 91.61 % area, the Appearance [1, 15] was “B↓” and the Assay [1, 15] was 98.84. The “Assay [% area]: bracketed % area” value [1, 15] was 100.00 % area, the Appearance [1, 16] was “A↓” and the Assay [1, 16] was 100.02. For the same molecule, the “Assay [% area]: bracketed % area” value [1, 16] was 100.00 % area, the Appearance [1, 17] was “B↓” and the Assay [1, 17] was 99.56. The “Assay [% area]: bracketed % area” value [1, 17] was 100.00 % area, the Appearance [1, 18] was “B↓” and the Assay [1, 18] was 101.19. For the same molecule, the “Assay [% area]: bracketed % area” value [1, 18] was 100.00 % area, the Appearance [1, 19] was “B↓” and the Assay [1, 19] was 102.19. The “Assay [% area]: bracketed % area” value [1, 19] was 100.00 % area, the Appearance [1, 20] was “A*” and the Assay [1, 20] was 94.14. The “Assay [% area]: bracketed % area” value [1, 20] was 93.21 % area, the Appearance [1, 21] was “A↓” and the Assay [1, 21] was 103.06. The “Assay [% area]: bracketed % area” value [1, 21] was 100.00 % area, the Appearance [1, 22] was “A↓” and the Assay [1, 22] was 100.44. For the same molecule, the “Assay [% area]: bracketed % area” value [1, 22] was 100.00 % area, the Appearance [1, 23] was “A↓” and the Assay [1, 23] was 102.42. For the same molecule, the “Assay [% area]: bracketed % area” value [1, 23] was 100.00 % area, the Appearance [1, 24] was “A↓” and the Assay [1, 24] was 101.85. For the same molecule, the “Assay [% area]: bracketed % area” value [1, 24] was 100.00 % area, the Assay ([1]; Unstressed) was 99.10 and the “Assay [% area]: bracketed % area” value ([1]; Unstressed) was 100.00 % area. The Intrinsic dissolution rate [2] was 0.0024 mg min^−1 cm^−2, the moisture uptake ([3]; 60% relative humidity) was “up to 2%” and the moisture uptake ([3]; 95% relative humidity) was “up to 2.7%”. The behaviour upon compression ([4]; compression) was “can withstand compression”, the behaviour upon grinding ([4]; grinding) was “becomes amorphous” and the “Bulk (XRPD)” value ([5]; Solid state, 1 week 80° C., 75% relative humidity) was “No change”. For the same molecule, the Assay [5, 25] was 100.88, the “Assay [% area]: bracketed % area” value [5, 25] was 100.00 % area and the Assay [5, 26] was 92.17. The “Assay [% area]: bracketed % area” value [5, 26] was 97.99 % area, the Assay [5, 27] was 100.71 and the “Assay [% area]: bracketed % area” value [5, 27] was 100.00 % area. For the same molecule, the “Bulk (XRPD)” value ([5]; Solid state, 1 week 80° C., tight container) was “No change”, the Assay [5, 28] was 101.23 and the “Assay [% area]: bracketed % area” value [5, 28] was 100.00 % area. For the same molecule, the Assay [5, 29] was 93.43, the “Assay [% area]: bracketed % area” value [5, 29] was 97.82 % area and the Assay [5, 30] was 100.77. For the same molecule, the “Assay [% area]: bracketed % area” value [5, 30] was 100.00 % area, the “Bulk (XRPD)” value ([5]; Xenon light (approximately 200 kLuxh)) was “No change” and the Assay [5, 31] was 99.73. For the same molecule, the “Assay [% area]: bracketed % area” value [5, 31] was 100.00 % area, the “% moisture gain” value [6] was 0.20% and the “decomposes at” value [7] was “about 173 °C”. For the same molecule, the “pH of 1% solution or suspension in water” value [8] was 2.53.
